Results reported in patent US20230248723A1, “PYRROLO[2,3-B]PYRAZINE COMPOUNDS AS CCCDNA INHIBITORS FOR THE TREATMENT OF HEPATITIS B VIRUS (HBV) INFECTION” (Hoffmann-La Roche Inc., priority 2017, published 2023).
Where two headings read alike, the source gives them in different places.

Tests used:
[1] = test system: liver-enriched genes (liver signatures); assay: Whole-genome transcriptome microarray on HLC treated with MB-1; type: cell-based, human
Description: FIG. 1: Maturation screen identified a small molecule that enhances maturation of HLC. (A) HLC maturation screening cascade. […] Lane 1-3, MB-1 (5 μM) at 7 d, 24 h, and 2 h, respectively. Lane 4-6, MB-1 (0.5 μM) at 7 d, 24 h, and 2 h, respectively. (C) BioQC liver score analysis of HLC transcriptomes (following treatment with MB-1 for 2 h, 24 h, and 7 day) were compared to those of PHH, HepaRG, and HepG2. (D) Expression of AAT-1a in HLC after 14 day of treatment with MB-1, or 1% DMSO. (E) MB-1-treated HLC support robust HBV infection: HLC (in 96-well plate) were treated with MB-1 (1 μM), or 1% DMSO, for 4 days, then infected with patient-derived HBV (MOI 10, in triplicate). Culture medium was harvested at indicated time points and analyzed for HBsAg.
To fully manifest the potential of HLC as a disease-relevant assay for HBV drug discovery, they have to meet the following criteria: hepatocyte-likeness, scalability, assay robustness, and reproducibility. It is well known that HLC still display immature phenotypes i.e. resemble more fetal than adult, hepatocytes (Baxter et al., 2015; Godoy et al., 2015; Goldring et al., 2017). […]

cccDNA = cccDNA assay (digital PCR), HBV-infected PHH; type: cell-based
Description: Fresh primary human hepatocytes (PXB-PHH) harvested from humanized mice (uPA/SCID mice)—herein called PHH—were obtained from PhoenixBio Co., Ltd (Japan). Cells were seeded on a collagen I-coated plate at the following cell density: 35,000 cells/well (384-well), 70,000 cells/well (96-well), or, 400,000 cells/well (24-well) in modified hepatocyte clonal growth medium (dHCGM). dHCGM is a DMEM medium containing 100 U/ml Penicillin, 100 μg/ml Streptomycin, 20 mM Hopes, 44 mM NaHCO3, 15 μg/ml L-proline, 0.25 μg/ml insulin, 50 nM Dexamethazone, 5 ng/ml EGF, 0.1 mM Asc-2P, 2% DMSO and 10% FBS (Ishida et al., 2015). Cells were cultured at 37° C. incubator in a humidified atmosphere with 5% CO2. Culture medium was replaced 24 h post-plating and every 2 days until harvest.
Following 4 day of maturation with 1 μM MB-1, HLC were incubated with HBV (purified from CHB individuals) at multiplicity of infection (MOI) 10-40 without PEG for 24 hr; virus inoculum was removed the following day. HBV infection in PHH was performed at MOI 40+4% PEG. Compound treatment in HLC and PHH was started at day 3 post infection. Compound (in powder) was dissolved in DMSO; the final concentration of DMSO added to cells is 1%. Fresh compound was replenished every 2 day until cells were harvested at day 10 (PHH), or day 14 (HLC). Compound effect on HBV and cellular toxicity was measured by multiplex assay (HBsAg, HBeAg, albumin), branched DNA (pgRNA), or digital PCR (cccDNA) and depicted as % of inhibition compared to DMSO control. Graphs were prepared using Spotfire software.
HBV-infected cells (in 384- or 96-well plate) were lysed with Cells-to-CT Lysis Reagents according to manufacturer's instruction (Thermo Scientific). To remove excess of RC-DNA, samples were digested with T5 exonuclease (10 U) (New England Biolabs), at 37° C. for 1 hr; enzyme was inactivated by heating the samples at 80° C. for 15 min. DNA samples (1.2 μl) were added into the digital PCR Master Mix (QuantStudio Digital PCR Kit, Thermo Scientific) containing cccDNA primers 5′-[…] (forward), 5′-[…] (reverse), and […] (probe) (Werle-Lapostolle et al., 2004) in a total volume 5 μl, and loaded into dPCR array using AccuFill System (AB). Each sample was loaded into 4 subarrays/256 through-holes. Digital PCR assay was run on QuantStudio 12K Flex (AB) and data was analyzed by Digital Suite Software (AB).

Compound	number of liver-enriched genes (liver tissue signature) with up-regulated mRNA expression ([1]; Gini index >0.7)	number of up-regulated genes that are highly expressed in the liver ([1]; Gini index >0.8)	IC50 (cccDNA; Hepatitis B virus, 240 h, patient-derived HBV GT A, MOI 40, day 10 pi, read-out: cccDNA IC50 (μM) Median)	IC50 (cccDNA; Hepatitis B virus, 240 h, patient-derived HBV GT B, MOI 40, day 10 pi, read-out: cccDNA IC50 (μM) Median)	IC50 (cccDNA; Hepatitis B virus, 240 h, patient-derived HBV GT C, MOI 40, day 10 pi, read-out: cccDNA IC50 (μM) Median)	IC50 (cccDNA; Hepatitis B virus, 240 h, patient-derived HBV GT D, MOI 40, day 10 pi (Table 5), read-out: cccDNA IC50 (μM) Median)	IC50 (cccDNA; Hepatitis B virus, HepG2.2.15-derived HBV GT D, MOI 40, read-out: cccDNA IC50 (μM) Median)	IC50 (cccDNA; Hepatitis B virus, HepG2.2.15-derived HBV GT D, MOI 125, read-out: cccDNA IC50 (μM) Median)	IC50 (cccDNA; Hepatitis B virus, patient-derived HBV (GT D), read-out: cccDNA IC50 (μM) Median)	IC50 (cccDNA; Hepatitis B virus, patient-derived HBV GT A-D, read-out: cccDNA IC50s)	IC50 (cccDNA; Hepatitis B virus, patient-derived HBV GT D, MOI 40 (Table 6), read-out: cccDNA IC50 (μM) Median)	IC50 (cccDNA; Hepatitis B virus, patient-derived HBV GT D, MOI 125, read-out: cccDNA IC50 (μM) Median)	IC50 (cccDNA; patient-derived HBV (GT D), read-out: cccDNA IC50 (μM) Median)
O=C(NCc1cccc(F)c1)c1cccc2[nH]c(-c3c(NC[C@@H](O)c4ccccc4)cc[nH]c3=O)nc12 [MB-1]	~237	137											
O=C(NC(CO)CO)c1c[nH]c2ncc(C3CC3)nc12 [compound 7]			7.15 µM	6.56 µM	6.2 µM	6.69 µM	25 µM	25.2 µM	< 10 µM	6.2 to 7.15 µM	6.41 µM	6.78 µM	6.76 µM
